Source: BigSolDB 2.1

O=[N+]([O-])c1cc[nH]n1
solubility (mole fraction)
Details	283.15 K	288.15 K	293.15 K	298.15 K	303.15 K	308.15 K	313.15 K	318.15 K	323.15 K
in THF	0.00254	0.00305	0.00386	0.00456	0.00553	0.00654	0.00761	0.00903	0.0106
in acetone	0.0129	0.0152	0.0177	0.0202	0.0228	0.0261	0.0301	0.0339	0.0376
in acetonitrile	0.0148	0.017	0.0195	0.0223	0.0254	0.0289	0.0327	0.037	0.0418
in benzene	0.00052	0.00066	0.00086	0.00109	0.00139	0.00171	0.00215	0.00265	0.00323
in ethanol	0.0254	0.0292	0.0328	0.0364	0.041	0.0449	0.0548	0.0599	0.0646
in ethyl acetate	0.00586	0.00728	0.00905	0.0107	0.0133	0.0163	0.0196	0.0236	0.0282
in isopropyl acetate	0.00234	0.00292	0.00364	0.00456	0.00566	0.00695	0.00849	0.0102	0.0125
in methanol	0.00822	0.0131	0.017	0.0208	0.0256	0.0338	0.0455	0.0605	0.0854
in methyl acetate	0.0083	0.0102	0.0125	0.0149	0.0178	0.0209	0.0244	0.0282	0.032
in n-butyl acetate	0.00323	0.00423	0.00542	0.00687	0.00865	0.0107	0.0132	0.0159	0.0191
in n-propanol	0.0224	0.0255	0.0295	0.0336	0.0384	0.0442	0.0481	0.0551	0.0627
in n-propyl acetate	0.00676	0.00793	0.0092	0.0106	0.0123	0.0142	0.0165	0.0193	0.0225
in toluene	0.00148	0.00187	0.00232	0.00286	0.00354	0.00437	0.00514	0.00623	0.00729
in water	0.00032	0.0004	0.00051	0.00065	0.00083	0.00105	0.00133	0.0017	0.00216
